Source: PubChem BioAssay (NCI)
Values joined by “and” are separate entries in the source; they are usually repeats but may differ in a detail not shown here. Equal values may be shown once.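 How tested: cells in 96-well plates exposed to compound for 48 hours at five concentrations. GI50 = concentration required for 50% inhibition of growth. TGI: total growth inhibition.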

Legend:
Assay in all cases: NCI tumour cell line growth inhibition, 48 h
[1] = tested on: A549 NSCLC
[2] = tested on: ACHN renal
[3] = tested on: CAKI-1 renal
[4] = tested on: HOP-92 NSCLC
[5] = tested on: OVCAR-4 ovarian
[6] = tested on: SK-OV-3 ovarian
[7] = tested on: SNB-75 CNS
[8] = tested on: TK-10 renal
[9] = tested on: BT-549 breast
[10] = tested on: NCI/ADR-RES ovarian

SMILES | GI50 [1] [µM] | TGI [1] [µM] | GI50 [2] [µM] | TGI [2] [µM] | GI50 [3] | TGI [3] [µM] | GI50 [4] [µM] | TGI [4] [µM] | GI50 [5] [µM] | TGI [5] [µM] | GI50 [6] [µM] | TGI [6] [µM] | GI50 [7] [µM] | TGI [7] | GI50 [8] [µM] | TGI [8] [µM] | TGI [9] [µM] | TGI [10] [µM] | GI50 [9] [µM] | GI50 [10] [µM]
C[C@]12CC[C@H](O)CC1=CC[C@@H]1[C@@H]2CC[C@]2(C)C(=O)/C(=C/c3cccc(OCCCn4ccnc4)c3)C[C@@H]12 | 13.8 | 28.8 | 16.7 | 38.6 | 38.4 µM | > 100 | 12.6 | 32.3 | 19.6 | 64.6 | 17.4 | 62.7 | 19.7 | 38.4 µM | 27.9 | 72 | – | – | – | –
O=c1cc2n(c(=O)[nH]1)C1OC(C(O)C1O)[C@@H]2CCO (some centres undefined) | – | > 100 | – | > 100 | – | > 100 | – | > 100 | – | > 100 | – | > 100 | – | – | – | > 100 | – | – | – | –
O=C(NC1CCCCC1)c1c(O)[nH]c(=S)[nH]c1=O | – | > 100 | – | > 100 | – | > 100 | – | > 100 | – | > 100 | – | > 100 | – | > 100 µM | – | > 100 | – | – | – | –
CC(=O)[CH-]C(=O)c1ccccc1.CC(=O)[CH-]C(=O)c1ccccc1.[Nd+3].[OH-].[OH3+] | > 100 | > 100 | > 100 | > 100 | > 100 µM | > 100 | > 100 | > 100 | > 100 | > 100 | > 100 | > 100 | 60.5 | > 100 µM | > 100 | > 100 | – | – | – | –
[Cu+2].[Cu+2].[O-]c1ccccc1C=Nc1ccccc1[O-].[O-]c1ccccc1C=Nc1ccccc1[O-] | 7.56 | 27.8 | 7.81 | 20.8 | 10.8 µM | 22.8 | – | – | 2.6 | 8.23 | 25.5 | 40.4 | 10.2 | 21.8 µM | 18.3 | 32.3 | – | – | – | –
CCCCN(CC)C(=O)C(=O)C1C(=O)Nc2ccccc2S1=O (centres undefined) | – | > 100 | – | > 100 | – | > 100 | – | > 100 | – | > 100 | – | > 100 | – | > 100 µM | – | > 100 | – | – | – | –
CC1=CC[C@@H]2[C@@H](CC[C@@]2(C)O)C(C)(C)[C@H]1CC[C@@H]1[C@@]2(C)CCC(=O)C(C)(C)O[C@@H]2CC[C@]1(C)O | – | > 100 | – | 42.4 | – | 96.6 | – | – | – | > 100 | – | > 100 | – | > 100 µM | – | > 100 | 57.8 | 60.9 | – | –
COc1nc(OC)c2c(=O)oc(-c3ccccc3)cc2n1 | – | > 100 | – | > 100 | – | > 100 | – | > 100 | – | > 100 | – | > 100 | – | > 100 µM | – | > 100 | – | – | – | –
COc1cc2c(cc1OC)C13CCN4CC5=CCOC(CC(=O)O)C(C5CC41)C3N2 (centres undefined) | – | > 100 | – | > 100 | – | > 100 | – | > 100 | – | > 100 | – | > 100 | – | – | – | > 100 | > 100 | > 100 | – | –
CCc1nc2c(O)ccc(O)c2nc1C | – | 44.5 | – | 23 | – | 33.2 | – | 13.7 | – | 17.3 | – | 34.2 | – | 37.6 µM | – | 37.1 | – | – | – | –
O=C(O)CSc1n[nH]c(/C=C/c2ccccc2)n1 | – | > 100 | – | > 100 | – | > 100 | – | > 100 | – | > 100 | – | > 100 | – | > 100 µM | – | > 100 | – | – | – | –
COC(=O)N1[C@H]2Cc3c(OC)c(C)c(OC)c(OC)c3[C@@H]1/C(=C\c1cc(OC)c(OC)c(C)c1OC)N(Cc1ccccc1)C2=O | – | > 100 | – | > 100 | – | > 100 | – | > 100 | – | > 100 | – | > 100 | – | > 100 µM | – | > 100 | – | – | – | –
COC(=O)c1cnc2nc(N3CCOCC3)[nH]n2c1=O | – | > 100 | – | > 100 | – | > 100 | – | > 100 | – | > 100 | – | > 100 | – | > 100 µM | – | > 100 | – | – | – | –
C=C1C(=O)O[C@@H]2C[C@]3(C)[C@@H](C[C@H]12)[C@](C)(O)CC[C@@H]3O | – | > 100 | – | > 100 | – | > 100 | – | > 100 | – | > 100 | – | > 100 | – | > 100 µM | – | 76.6 | – | – | – | –
CC(NC(=O)c1ccccc1)C(=O)N(Cc1ccccc1)Cc1ccccc1 (centres undefined) | – | > 100 | – | > 100 | – | > 100 | – | 68.7 | – | 95.3 | – | > 100 | – | > 100 µM | – | > 100 | – | – | – | –
O=C(NO)c1ccc(C(=O)NO)cc1 | – | > 100 | – | > 100 | – | > 100 | – | > 100 | – | > 100 | – | 87.2 | – | > 100 µM | – | > 100 | – | 26.2 | – | –
Cc1c(/C=C2\CC/C(=C\c3[nH]c(C(=O)OC(C)(C)C)c(C)c3C)C2=O)[nH]c(C(=O)OC(C)(C)C)c1C | – | > 100 | – | – | – | > 100 | – | > 100 | – | > 100 | – | > 100 | – | > 100 µM | – | > 100 | – | – | – | –
COc1ccc(CNc2cc(OC)cc(OC)c2)cc1 | – | > 100 | – | > 100 | > 100 µM and 34.6 µM | > 100 | – | > 100 | – | > 100 | – | > 100 | – | > 100 µM and 96.8 µM | – | > 100 | – | – | – | –
COC(=O)OCC1OC(N2C(=O)NC(=O)C(I)C2N=[N+]=[N-])CC1OC(=O)OC (centres undefined) | – | > 100 | – | > 100 | – | > 100 | – | > 100 | – | > 100 | – | > 100 | – | > 100 µM | – | > 100 | – | – | – | –
O=C1OCC(c2ccc(O)c(O)c2)=C1c1cc(O)c(O)c(O)c1 | 21.6 | 76 | 33.3 | > 100 | 14.3 µM | 27.9 | 2.76 | 18.2 | 26.2 | 70.1 | – | – | 54 | > 100 µM | 73.1 | > 100 | > 100 | 18.8 | 39 | 0.0297
CC(=O)O[C@]1(C(C)=O)CC[C@H]2[C@@H]3C[C@H](C)C4=CC(=O)C=C[C@]4(C)[C@@]3(F)[C@@H](O)C[C@@]21C | – | > 100 | – | > 100 | – | > 100 | – | > 100 | – | 90.8 | – | 51 | – | > 100 µM | – | > 100 | – | – | – | –
CCCCCCC1CCC2CCCC(C)N12 (centres undefined) | – | > 100 | – | > 100 | – | > 100 | – | > 100 | – | > 100 | – | – | – | > 100 µM | – | > 100 | – | – | – | –
